The test system of one data set is calcium from bone. Particulars: compared to 1α,25-dihydroxyvitamin D3; cited from earlier work.
A short description of data set [1]: Body weight in aged female rats. Particulars: at 7-1/2 months, 5 or 7 ng 2-MD/kg orally each day. The format is in vivo. The text has this: (§1) 48 retired female breeder rats of 12 months of age were obtained from the Harlan Sprague-Dawley Company. Upon arrival, the animals were ovariectomized or sham-operated. These animals were housed in individual hanging wire cages and provided water ad libitum. Food consumption was restricted to 19-21 g/day. Animals were maintained on a purified diet described by Suda et al (J. Nutr. 1970) which contained 0.47% calcium and 0.3% phosphorus. In addition, these animals received supplements of vitamin A, E, D, and K as described in the Suda paper. One half of the animals received each day 0.1 ml of Wesson Oil while the remaining one-half of the animals received orally the 0.1 ml of Wesson Oil containing 5 or 7 ng/2-MD/kg body weight. The animals were monitored weekly for body weight, general health and survival. These animals were followed for 7.5 months.

For data set [2], the system named is aged, ovariectomized female rats. Nature of the data set: Survival of aged ovariectomized female rats given 2-MD orally each day for 7.5 months. The format is in vivo, rat. How it is done: Thus, the experiment was carried out as follows:
as §1

Consider `C=C1[C@H](O)CC(=C/C=C2\CCC[C@]3(C)[C@@H]([C@@H](C)CCCC(C)(C)O)CC[C@@H]23)C[C@H]1O` [2-MD, 2-methylene-19-nor-20(S)-1α,25-dihydroxyvitamin D3], for which, in the data set with calcium from bone, the “ability to mobilize calcium from bone” value is “very high activity”. Further, in data set [1], the “Body Weight Final” value is reported as 382 ± 10 g. In data set [2] (5 or 7 ng 2-MD/kg body weight orally each day, 7.5 months), the “survival and general health over the entire period” value was “survived the entire period and were in good health”. This compound yielded a survival rate in data set [2] (aged, ovariectomized female rats, oral 2-MD each day, 7.5 months) of 100%. For the same compound, the “Survival Ratio #premature deaths/total # animals” value in data set [2] (ovariectomized or sham-operated retired female breeder rats, 12 months of age, 5 or 7 ng 2-MD/kg body weight orally each day in Wesson Oil, followed for 7.5 months) was 0/24.

The values above are taken from patent publication US7718636B2, “Use of 2-methylene-19-nor-20(S)-1alpha,25dihydroxy vitamin d3 to inhibit mammary tumor” (Wisconsin Alumni Research Foundation, priority 2003, dated 2010).
